Patent US20200216416A1, “QUINOLINE COMPOUNDS AS INHIBITORS OF TAM AND MET KINASES” (Array BioPharma Inc., priority 2019, published 2020)

Assays:
[1] = target: T1, His-tagged recombinant human MER cytoplasmic domain (Homo sapiens, UniProt Q12866); assay: MER Enzyme Assay (LanthaScreen Eu Kinase Binding); conditions: averaged IC50; MER 5 nM; 60-minute incubation at 22° C.; TR-FRET
T1 construct: His-tagged recombinant human MER cytoplasmic domain
T1 sequence (Q12866 527-999 limits assumed): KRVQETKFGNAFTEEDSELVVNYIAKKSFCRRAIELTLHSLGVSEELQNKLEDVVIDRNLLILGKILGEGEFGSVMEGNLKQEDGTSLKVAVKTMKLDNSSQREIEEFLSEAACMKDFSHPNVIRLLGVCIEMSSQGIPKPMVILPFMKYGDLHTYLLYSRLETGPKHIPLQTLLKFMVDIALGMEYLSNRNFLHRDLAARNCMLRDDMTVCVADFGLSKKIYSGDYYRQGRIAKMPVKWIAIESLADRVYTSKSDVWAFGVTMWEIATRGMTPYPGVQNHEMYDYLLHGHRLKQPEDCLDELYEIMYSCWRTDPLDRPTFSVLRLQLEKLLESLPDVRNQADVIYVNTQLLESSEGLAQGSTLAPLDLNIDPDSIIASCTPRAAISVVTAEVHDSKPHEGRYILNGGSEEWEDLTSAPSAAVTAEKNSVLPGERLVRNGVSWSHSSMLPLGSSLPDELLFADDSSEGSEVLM
Outline: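 TR-FRET binding: 5 nM His-MER cytoplasmic domain with 20 nM Tracer 236, 2 nM biotin-anti-His and 2 nM Eu-streptavidin in pH 7.4 HEPES, 10 mM MgCl2, 2% DMSO, with threefold compound dilutions, 60 min at 22 °C. Percent of control was fit to a 4-parameter logistic, and IC50 was taken at 50 POC.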

[2] = target: T2, GST-tagged recombinant human TYRO3 kinase domain (Homo sapiens, UniProt Q06418); assay: TYRO3 Enzyme Assay (LanthaScreen Eu Kinase Binding); conditions: averaged IC50; TYRO3 5 nM; 60-minute incubation at 22° C.; TR-FRET
T2 construct: GST-tagged recombinant human TYRO3 kinase domain; purchased Carna PR7480A
T2 sequence (Q06418 518-790 limits assumed): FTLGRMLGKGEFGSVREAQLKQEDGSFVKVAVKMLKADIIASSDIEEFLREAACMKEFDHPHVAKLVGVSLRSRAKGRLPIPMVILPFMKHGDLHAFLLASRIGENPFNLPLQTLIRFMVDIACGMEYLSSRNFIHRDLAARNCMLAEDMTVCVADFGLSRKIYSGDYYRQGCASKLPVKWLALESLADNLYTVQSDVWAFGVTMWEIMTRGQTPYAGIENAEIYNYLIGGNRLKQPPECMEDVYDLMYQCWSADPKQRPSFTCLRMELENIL
Outline: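 Competitive tracer-displacement TR-FRET: 5 nM kinase, 20 nM Alexa-Fluor Tracer 236 and 2 nM Eu-anti-GST with threefold-diluted compound in 25 mM HEPES pH 7.4, 10 mM MgCl2, 0.01% Triton X-100, 2% DMSO, 60 min at 22° C. Ratiometric percent of control fitted to a 4-parameter logistic; IC50 at 50 POC.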

[3] = target: T3, human MET kinase del Ex14 (Homo sapiens, UniProt P08581, DEL963-1009); assay: c-Met Enzyme Assay, del Ex14 mutant; assay type: binding; conditions: averaged IC50; del Ex14 5 nM; 60-minute incubation at 22° C.; read-out: Del14 IC50
T3 construct: GST-tagged recombinant human MET kinase domain; purchased Signal Chem
Outline: (§1)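 LanthaScreen Eu TR-FRET binding: GST-tagged recombinant MET kinase domain incubated with compound, 50 nM Alexa-Fluor Tracer 236 and 2 nM Eu-anti-GST in 25 mM HEPES pH 7.4, 10 mM MgCl2, 1 mM DTT, 2% DMSO, 60 min at 22 °C. Ratiometric emission gave percent of control; IC50 from 4-parameter fit at 50 POC.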

[4] = target: T4, human MET kinase D1228H (Homo sapiens, UniProt P08581, D1228H); assay: c-Met Enzyme Assay, D1228H mutant; assay type: binding; conditions: averaged IC50; D1228H 2 nM; 60-minute incubation at 22° C.; read-out: D1228 H IC50
T4 construct: GST-tagged recombinant human MET kinase domain; purchased Signal Chem
Outline: as §1

[5] = target: T5, human MET kinase F1200I (Homo sapiens, UniProt P08581, F1200I); assay: c-Met Enzyme Assay, F1200I mutant; assay type: binding; conditions: averaged IC50; F1200I 2 nM; 60-minute incubation at 22° C.
T5 construct: GST-tagged recombinant human MET kinase domain; purchased Signal Chem
Outline: as §1

[6] = target: T6, human MET kinase Y1230C (Homo sapiens, UniProt P08581, Y1230C); assay: c-Met Enzyme Assay, Y1230C mutant; assay type: binding; conditions: averaged IC50; Y1230C 2 nM; 60-minute incubation at 22° C.; read-out: Y1230 C IC50
T6 construct: GST-tagged recombinant human MET kinase domain; purchased Signal Chem
Outline: as §1

[7] = target: T7, human MET kinase Y1230H (Homo sapiens, UniProt P08581, Y1230H); assay: c-Met Enzyme Assay, Y1230H mutant; assay type: binding; conditions: averaged IC50; Y1230H 5 nM; 60-minute incubation at 22° C.; read-out: Y1230 H IC50
T7 construct: GST-tagged recombinant human MET kinase domain; purchased Signal Chem
Outline: as §1

[8] = target: T8, human MET kinase Y1230S (Homo sapiens, UniProt P08581, Y1230S); assay: c-Met Enzyme Assay, Y1230S mutant; assay type: binding; conditions: averaged IC50; Y1230S 8 nM; 60-minute incubation at 22° C.; read-out: Y1230 S IC50
T8 construct: GST-tagged recombinant human MET kinase domain; purchased Signal Chem
Outline: as §1

T8 sequence (P08581 1078-1345 Y1230S): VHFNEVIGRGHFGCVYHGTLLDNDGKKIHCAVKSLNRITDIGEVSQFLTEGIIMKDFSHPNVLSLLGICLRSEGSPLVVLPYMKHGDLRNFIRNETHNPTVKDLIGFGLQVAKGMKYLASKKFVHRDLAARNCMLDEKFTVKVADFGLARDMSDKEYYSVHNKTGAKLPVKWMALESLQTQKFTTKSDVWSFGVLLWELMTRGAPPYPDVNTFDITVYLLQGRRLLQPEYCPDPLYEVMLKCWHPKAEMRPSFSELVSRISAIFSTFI
T4 sequence (P08581 1078-1345 D1228H): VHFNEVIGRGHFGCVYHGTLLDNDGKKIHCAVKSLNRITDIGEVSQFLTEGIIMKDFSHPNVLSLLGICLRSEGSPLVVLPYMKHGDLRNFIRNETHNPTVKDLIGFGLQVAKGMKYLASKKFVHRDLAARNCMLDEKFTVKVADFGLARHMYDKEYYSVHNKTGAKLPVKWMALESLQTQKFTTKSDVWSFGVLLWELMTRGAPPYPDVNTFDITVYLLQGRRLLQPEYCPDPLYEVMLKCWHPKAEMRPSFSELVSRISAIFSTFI
T6 sequence (P08581 1078-1345 Y1230C): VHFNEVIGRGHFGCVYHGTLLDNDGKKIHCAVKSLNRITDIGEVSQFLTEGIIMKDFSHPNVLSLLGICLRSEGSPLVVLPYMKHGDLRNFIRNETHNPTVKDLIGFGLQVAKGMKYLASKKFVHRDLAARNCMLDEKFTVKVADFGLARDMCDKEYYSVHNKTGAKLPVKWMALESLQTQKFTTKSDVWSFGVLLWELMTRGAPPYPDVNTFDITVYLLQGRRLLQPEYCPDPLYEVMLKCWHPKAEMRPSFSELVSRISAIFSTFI
T7 sequence (P08581 1078-1345 Y1230H): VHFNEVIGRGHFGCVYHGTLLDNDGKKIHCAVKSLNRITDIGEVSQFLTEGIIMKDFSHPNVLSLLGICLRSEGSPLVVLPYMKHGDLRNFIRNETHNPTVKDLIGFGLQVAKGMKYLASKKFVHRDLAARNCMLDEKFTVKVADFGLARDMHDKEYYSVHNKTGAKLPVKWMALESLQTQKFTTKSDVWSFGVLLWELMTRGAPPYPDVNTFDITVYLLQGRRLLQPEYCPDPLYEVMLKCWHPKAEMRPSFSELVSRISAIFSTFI
T3 sequence (P08581 with tags, fused parts or gaps DEL963-1009 limits assumed): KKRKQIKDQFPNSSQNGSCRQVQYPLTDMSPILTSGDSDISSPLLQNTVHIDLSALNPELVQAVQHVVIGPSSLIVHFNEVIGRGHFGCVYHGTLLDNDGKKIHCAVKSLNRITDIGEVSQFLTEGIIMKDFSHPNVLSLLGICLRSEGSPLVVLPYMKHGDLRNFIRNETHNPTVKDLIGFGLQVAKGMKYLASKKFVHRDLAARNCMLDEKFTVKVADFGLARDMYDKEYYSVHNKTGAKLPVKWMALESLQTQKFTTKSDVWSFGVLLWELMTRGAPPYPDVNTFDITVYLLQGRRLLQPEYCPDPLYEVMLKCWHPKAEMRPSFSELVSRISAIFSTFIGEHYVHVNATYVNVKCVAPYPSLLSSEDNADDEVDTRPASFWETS
T5 sequence (P08581 1078-1345 F1200I limits assumed): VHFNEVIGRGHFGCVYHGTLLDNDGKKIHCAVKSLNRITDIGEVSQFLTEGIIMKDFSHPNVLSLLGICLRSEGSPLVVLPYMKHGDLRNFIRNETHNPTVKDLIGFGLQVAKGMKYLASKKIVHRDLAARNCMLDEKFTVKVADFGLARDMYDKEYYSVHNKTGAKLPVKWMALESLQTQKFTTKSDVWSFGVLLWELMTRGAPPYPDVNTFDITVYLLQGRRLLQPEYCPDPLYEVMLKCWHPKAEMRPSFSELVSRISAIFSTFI

Row | SMILES | IC50 [1] [nM] | IC50 [2] [nM] | IC50 [3] [nM] | IC50 [4] [nM] | IC50 [5] [nM] | IC50 [6] [nM] | IC50 [7] [nM] | IC50 [8] [nM]
1 | COc1ccc2nccc(Oc3ccc(NC(=O)c4cn(CCN(C)C)cc(-c5ccc(F)cc5)c4=O)nc3)c2c1 [Example 47] | 7 | 56 | 14.3 | 31.1 | 8.5 | 8.8 | 29.4 | 18.9
2 | COc1cc2c(Oc3ccc(NC(=O)c4cn(C(C)C)c(C)c(-c5ccc(F)cc5)c4=O)nc3)ccnc2cc1F [Example 48, N-(5-((7-fluoro-6-methoxyquinolin-4yl)oxy)pyridin-2-yl)-5-(4-fluorophenyl)-1-isopropyl-6-methyl-4-oxo-1,4-dihydropyridine-3-carboxamide] | 5 | 10 | 4.9 | 11.9 | 5.4 | 9.4 | 15.8 | 8.8
3 | COc1cc2c(Oc3ccc(NC(=O)c4cn(C(C)C)cc(-c5ccc(F)cc5)c4=O)nc3)ccnc2cc1F [Example 49, N-(5-((7-fluoro-6-methoxyquinolin-4yl)oxy)pyridin-2-yl)-5-(4-fluorophenyl)-1-isopropyl-4-oxo-1,4-dihydropyridine-3-carboxamide] | 5 | 58 | 22 | 64.3 | 27.8 | 39 | 112 | 67.1
4 | CC(C)n1cc(C(=O)Nc2ccc(Oc3ccnc4cc(OC(F)(F)F)ccc34)cn2)c(=O)c(-c2ccc(F)cc2)c1 [Example 50, 5-(4-fluorophenyl)-1-isopropyl-4-oxo-N-(5-((7-(trifluoromethoxy)quinolin-4-yl)oxy)pyridin-2-yl)-1,4-dihydropyridine-3-carboxamide] | 79 | 470 | 90.4 | 223 | 104 | 199 | 397 | 166
5 | CCOc1ccc2nccc(Oc3ccc(NC(=O)c4cn(C(C)C)cc(-c5ccc(F)cc5)c4=O)nc3)c2c1 [Example 51, N-(5-((6-ethoxyquinolin-4-yl)oxy)pyridin-2-yl)-5-(4-fluorophenyl)-1-isopropyl-4-oxo-1,4-dihydropyridine-3-carboxamide] | 14 | 112 | 29.4 | 59.5 | 35 | 61.8 | 200 | 44
6 | CCOc1ccc2c(Oc3ccc(NC(=O)c4cn(C(C)C)cc(-c5ccc(F)cc5)c4=O)nc3)ccnc2c1 [Example 52, N-(5-((7-ethoxyquinolin-4-yl)oxy)pyridin-2-yl)-5-(4-fluorophenyl)-1-isopropyl-4-oxo-1,4-dihydropyridine-3-carboxamide] | 11 | 18 | 10.3 | 14.5 | 20.1 | 13.1 | 32.6 | 14.3
7 | COc1cc2nccc(Oc3cnc(NC(=O)c4cn(C(C)C)cc(-c5ccc(F)cc5)c4=O)nc3)c2cc1OC [Example 54, N-(5-((6,7-dimethoxyquinolin-4-yl)oxy)pyrimidin-2-yl)-5-(4-fluorophenyl)-1-isopropyl-4-oxo-1,4-dihydropyridine-3-carboxamide] | 10 | 21 | 3.8 | 3.8 | 6.7 | 4.3 | 7.2 | 3.2

Other lines, results leading:

Row | IC50 [1] [nM] | IC50 [2] [nM] | IC50 [3] [nM] | IC50 [4] [nM] | IC50 [5] [nM] | IC50 [6] [nM] | IC50 [7] [nM] | IC50 [8] [nM] | SMILES
8 | 5 | 8 | 3.1 | 2.2 | 3.4 | 2.2 | 2.8 | 2.6 | COc1cc2nccc(Oc3cnc(NC(=O)c4cn(C(C)C)c(C)c(-c5ccc(F)cc5)c4=O)nc3)c2cc1OC [Example 55, N-(5-((6,7-dimethoxyquinolin-4-yl)oxy)pyrimidin-2-yl)-5-(4-fluorophenyl)-1-isopropyl-6-methyl-4-oxo-1,4-dihydropyridine-3-carboxamide]
9 | 6 | 10 | 4.5 | 1.9 | 5 | 3.2 | 5.2 | 3 | COc1cc2c(Oc3ccc(NC(=O)c4cn(C(C)C)cc(-c5ccc(F)cc5)c4=O)nc3)ccnc2cc1OCCCN1CCOCC1 [Example 56, 5-(4-fluorophenyl)-1-isopropyl-N-(5-((6-methoxy-7-(3-morpholinopropoxy)quinolin-4-yl)oxy)pyridin-2-yl)-4-oxo-1,4-dihydropyridine-3-carboxamide]
10 | 29 | 255 | 305 | 532 | 346 | 526 | 789 | 514 | COc1cc2ncc(C#N)c(Oc3ccc(NC(=O)c4cn(C(C)C)cc(-c5ccc(F)cc5)c4=O)nc3)c2cc1OC [Example 57, N-(5-((3-cyano-6,7-dimethoxyquinolin-4-yl)oxy)pyridin-2-yl)-5-(4-fluorophenyl)-1-isopropyl-4-oxo-1,4-dihydropyridine-3-carboxamide]
11 | 2 | 6 | 3.1 | 3.5 | 3.5 | 2.2 | 5.3 | 2.7 | COc1cc2nccc(Oc3ccc(NC(=O)c4cn(C(C)C)cc(-c5ccc(F)cc5)c4=O)cn3)c2cc1OC [Example 58, N-(6-((6,7-dimethoxyquinolin-4-yl)oxy)pyridin-3-yl)-5-(4-fluorophenyl)-1-isopropyl-4-oxo-1,4-dihydropyridine-3-carboxamide]
